Experimental data reported in patent publication US6867207B2, “IL-5 inhibiting 6-azauracil derivatives” (Janssen Pharmaceutica N.V., priority 1997, dated 2005).
Marks after values point to notes of the source that are not given here.

System: IL-5 production
Test: In vitro inhibition of IL-5 production in human blood (phytohemagglutinin-stimulated whole blood, ELISA)
Format: cell-based
Conditions: test dose 1×10^−5 M (values marked *), 48 hours
Experimental: In Vitro Inhibition of IL-5 Production in Human Blood
Human Whole Blood Stimulation
Peripheral blood from healthy male donors was drawn into heparinized syringes (12.5 U heparin/ml). Blood samples were three-fold diluted in RMPI 1640 medium (Life Technologies, Belgium) supplemented with 2 mM L-glutamine, 100 U/ml penicillin and 100 μg/ml streptomycin, and 300 μl fractions were distributed in 24-well multidisc plates. Blood samples were preincubated (60 minutes at 37° C.) in a humidified 6% CO2-atmosphere with 100 μl of drug solvent (final concentration 0.02% dimethylsulfoxide in RPMI 1640) or with 100 μl of an appropriate dose of test compound before being stimulated by the addition of 100 μl of phytohemagglutinin HA17 (Murex, UK) at a final concentration of 2 μg/ml. After 48 hours, cell-free supernatant fluids were collected by centrifugation and stored at −70° C. until tested for the presence of IL-5.
IL-5 measurements were conducted as described in Van Wauwe et al. (1996, Inflamm Res, 45, 357-363) on page 358 using ELISA.
Table 9 lists the percentage inhibition of IL-5 production (column “% inh”) at a test dose of 1×10^−6 M, or in case the percentage inhibition is marked with an “*” 1×10^−5 M, the compounds of the present invention.

SMILES | % inh. (percentage inhibition of IL-5 production), marked with *
Cn1cnnc1SC(c1ccc(Cl)cc1)c1ccc(-n2ncc(=O)[nH]c2=O)cc1Cl (racemic) [Compound 53] | 53* %
Cc1cc(O)nc(SC(c2ccc(Cl)cc2)c2ccc(-n3ncc(=O)[nH]c3=O)cc2Cl)n1 (racemic) [Compound 60] | 24* %

Same assay, conditions: test dose 1×10^−6 M, 48 hours

SMILES | % inh. (percentage inhibition of IL-5 production) [%]
Cc1nc(-c2ccc(Cl)cc2)c(C(c2ccc(Cl)cc2)c2ccc(-n3ncc(=O)[nH]c3=O)cc2Cl)s1 (racemic) [Compound 149] | 89
O=c1cnn(-c2cc(Cl)c(C(Sc3ccncn3)c3ccc(Cl)cc3)c(Cl)c2)c(=O)[nH]1 (racemic) [Compound 409] | 88
O=c1cnn(-c2cc(Cl)c(C(c3ccc(Cl)cc3)c3ccccn3)c(Cl)c2)c(=O)[nH]1 (centres unmarked) [Comp 115] | 71
Cc1nnc(SC(c2ccc(Cl)cc2)c2ccc(-n3ncc(=O)[nH]c3=O)cc2Cl)s1 (racemic) [Compound 56] | 41
CS(=O)(=O)Nc1cccc(-c2nnc(C(c3ccc(Cl)cc3)c3c(Cl)cc(-n4ncc(=O)[nH]c4=O)cc3Cl)o2)c1 (racemic) [Compound 208] | 48
CC(=O)Nc1ccc(SC(c2ccc(Cl)c(C(F)(F)F)c2)c2c(Cl)cc(-n3ncc(=O)[nH]c3=O)cc2Cl)cc1 (racemic) [Compound 398] | 96
Cc1nnc(SC(c2ccc(Cl)cc2)c2ccc(-n3ncc(=O)[nH]c3=O)cc2Cl)[nH]c1=O (centres unmarked) [Compound 85] | 38
O=c1cnn(-c2cc(Cl)c(C(c3ccc(Cl)cc3)c3nc(-c4cccc(F)c4)cs3)c(Cl)c2)c(=O)[nH]1 (single isomer, unassigned) [Comp 319] | 84
COC(c1ccc(Cl)cc1)(c1nc2ccccc2s1)c1ccc(-n2ncc(=O)[nH]c2=O)cc1Cl (centres unmarked) [Comp 418] | 47
O=c1cnn(-c2cc(Cl)c(C(Sc3nccc(N(CCO)CCO)n3)c3ccc(Cl)cc3)c(Cl)c2)c(=O)[nH]1 (racemic) [Compound 358] | 63
O=c1cnn(-c2cc(Cl)c(C(c3ccc(Cl)cc3)c3csc(-c4ccccc4)n3)c(Cl)c2)c(=O)[nH]1 (racemic) [Compound 363, (±)-2-[3,5-dichloro-4-[(4-chlorophenyl)(2-phenyl-4-thiazoyl)methyl]phenyl]-1,2,4-triazine-3,5(2H,4H)-dione] | 91
CC(c1ccc(Cl)cc1)(c1nnc(-c2ccccc2)o1)c1c(Cl)cc(-n2ncc(=O)[nH]c2=O)cc1Cl (racemic) [Compound 206] | 82
O=c1cnn(-c2cc(Cl)c(C(Sc3nc(-c4cccs4)cs3)c3ccc(Cl)c(C(F)(F)F)c3)c(Cl)c2)c(=O)[nH]1 (centres unmarked) [Compound 390] | 89
O=c1cnn(-c2cc(Cl)c(C(Nc3nc(-c4ccccc4)cs3)c3ccc(Cl)c(C(F)(F)F)c3)c(Cl)c2)c(=O)[nH]1 (racemic) [Compound 411] | 94
Cc1cccc(-c2csc(C(c3ccc(Cl)cc3)c3c(Cl)cc(-n4ncc(=O)[nH]c4=O)cc3Cl)n2)c1 (racemic) [Comp 22] | 93
Cc1sc(NC(c2ccc(Cl)cc2)c2ccc(-n3ncc(=O)[nH]c3=O)cc2Cl)nc1-c1ccccc1 (racemic) [Compound 412] | 16
O=c1cnn(-c2ccc(C(c3ccc(Cl)cc3)c3nc4sccn4c3-c3ccccc3)c(Cl)c2)c(=O)[nH]1 (centres unmarked) [Comp 432] | 82
O=C(NC(c1ccc(Cl)cc1)c1ccc(-n2ncc(=O)[nH]c2=O)cc1Cl)c1ccccc1 (racemic) [Compound 47, (±)-N-[[2-chloro-4-(4,5-dihydro-3,5-dioxo-1,2,4-triazin-3(2H)-yl)phenyl](4-chlorophenyl)methyl]benzamide] | 33

SMILES | % inh. (percentage inhibition of IL-5 production) [%]
O=c1cnn(-c2cc(Cl)c(C(c3ccncc3)c3ccc(Cl)cc3)c(Cl)c2)c(=O)[nH]1 (centres unmarked) [Comp 113] | 76
CN(C)CCc1sc(C(c2ccc(Cl)cc2)c2c(Cl)cc(-n3ncc(=O)[nH]c3=O)cc2Cl)nc1-c1ccccc1 (racemic) [Comp 279] | 92
O=c1cnn(-c2cc(Cl)c(C(c3ccc(Cl)cc3)c3nnc(Cc4ccccc4)o3)c(Cl)c2)c(=O)[nH]1 (racemic) [Compound 173] | 44
Nc1cc(N)nc(SC(c2ccc(Cl)cc2)c2ccc(-n3ncc(=O)[nH]c3=O)cc2Cl)n1 (racemic) [Compound 70] | 51
O=c1cnn(-c2cc(Cl)c(C(Sc3nccc(-c4ccccc4)n3)c3ccc(Cl)c(C(F)(F)F)c3)c(Cl)c2)c(=O)[nH]1 (racemic) [Compound 342] | 93
CN(Cc1sc(C(c2ccc(Cl)cc2)c2c(Cl)cc(-n3ncc(=O)[nH]c3=O)cc2Cl)nc1-c1ccccc1)C1CCCCC1 (racemic) [Comp 334] | 75
O=c1cnn(-c2ccc(C(c3ccc(Cl)cc3)n3cncn3)c(Cl)c2)c(=O)[nH]1 (racemic) [Comp 97] | 26
Cc1cc(-n2ncc(=O)[nH]c2=O)cc(C)c1C(c1ccc(Cl)c(Cl)c1)c1nc(-c2ccccc2)cs1 (racemic) [Comp 270] | 86
Cc1sc(SC(c2ccc(Cl)c(C(F)(F)F)c2)c2c(Cl)cc(-n3ncc(=O)[nH]c3=O)cc2Cl)nc1-c1ccccc1 (centres unmarked) [Compound 392] | 87
O=c1cnn(-c2cc(Cl)c(C(c3ccc(Cl)cc3)c3nnc(-c4ccccc4F)o3)c(Cl)c2)c(=O)[nH]1 (racemic) [Compound 156] | 91
COc1cccc(-c2csc(C(c3ccc(Cl)cc3)c3c(Cl)cc(-n4ncc(=O)[nH]c4=O)cc3Cl)n2)c1 (racemic) [Comp 24] | 74
O=c1cnn(-c2cc(Cl)c(C(c3ccc(Cl)cc3)c3cccnc3)c(Cl)c2)c(=O)[nH]1 (centres unmarked) [Comp 116] | 74
NC(c1ccc(Cl)cc1)(c1nc2ccccc2s1)c1ccc(-n2ncc(=O)[nH]c2=O)cc1Cl (centres unmarked) [Comp 416] | 79
CCc1sc(C(c2ccc(Cl)cc2)c2c(Cl)cc(-n3ncc(=O)[nH]c3=O)cc2Cl)nc1-c1cccc(F)c1 (racemic) [Comp 260] | 98
Cc1nc(-c2ccccc2F)c(C(c2ccc(Cl)cc2)c2c(Cl)cc(-n3ncc(=O)[nH]c3=O)cc2Cl)s1 (racemic) [Compound 152] | 87
O=c1cnn(-c2cc(Cl)c(C(c3ccc(Cl)cc3)c3nc(-c4cc(F)cc(F)c4)cs3)c(Cl)c2)c(=O)[nH]1 (racemic) [Comp 286] | 86
O=c1cnn(-c2cc(Cl)c(C(c3ccc(Cl)cc3)c3nnc(-c4ccccn4)o3)c(Cl)c2)c(=O)[nH]1 (racemic) [Compound 169] | 81

Same assay, conditions: test dose 1×10^−6 M, 48 hours, read-out: % inh. (percentage inhibition of IL-5 production)

SMILES | inhibition at 1 µM [%]
O=c1cnn(-c2ccc(C(NCCO)c3ccc(Cl)cc3)c(Cl)c2)c(=O)[nH]1 (racemic) [Compound 51, (±)-2-[3-chloro-4-[(4-chlorophenyl)[(2-hydroxyethyl)amino]methyl]phenyl]-1,2,4-triazin-3,5(2H,4H)-dione] | 10
